Measured values reported in PMC2965131, “Histopathology and biochemistry analysis of the interaction between sunitinib and paracetamol in mice” (BMC Pharmacology, 2010).
Where “and” joins values, the source holds several entries; their conditions need not be identical. Identical values can stand only once.

Key:
[1] = tested on: Male ICR mice; assay: Serum ALT and AST (liver function biomarkers); format: in vivo; settings: for ALT serum concentration / AST serum concentration: mean ± SE
Description: (§1) Animals were fasted overnight prior to dose administration and randomly assigned to each of the four experimental groups. Mice in group A (n = 6) were administered saline; mice in group B mice (n = 6) were administered paracetamol only, 500 mg/kg IP. Group C was further subdivided into five different dose-groups of sunitinib only treatment: 25, 50, 80, 100 and 140 mg/kg administered PO (n = 6 for each dose group). Finally, mice in group D were co-administered paracetamol (500 mg/kg IP) and sunitinib at different doses: 25, 50, 80, 100 and 140 mg/kg PO (n = 6 each dose group). A feeding needle was used to ensure the full administration of the dose. Paracetamol was administered 15 minutes before sunitinib and animals were sacrificed 4 hours post sunitinib administration by cervical dislocation. Blood was obtained via cardiac puncture, allowed to clot, centrifuged (1500 rpm, 10 min, room temperature) and stored at -20°C until analysis. The liver and kidneys were excised from the mice and processed for histology assessment.
(§2) Biochemistry analysis of serum ALT and AST was performed using standard assay kits (BiooScientific Corp., USA). The concentration in duplicate samples was measured at 340 nm using a microplate reader (Tecan Infinite F200). Similarly, blood urea nitrogen (BUN) and creatinine concentration were measured using specific assay kits (BioAssay Systems, USA) and measured at 490 nm (duplicate samples) in a Dynex OpsysMR microplate reader.
(§3) The effect of the drug combination on the biomarker levels compared to sunitinib alone treatment was assessed with the aid of SPSS 16.0 with the significance level set at p < 0.05. Independent-samples t-test (for samples normally distributed based on Shapiro-Wilk test) for pair-wise comparison was performed at each dose of the sunitinib alone and sunitinib and paracetamol combination groups. Samples that were not normally distributed were tested using the Mann Whitney test.

[2] = tested on: Male ICR mice; assay: Serum BUN and creatinine (renal function biomarkers); format: in vivo; settings: for BUN serum concentration / Creatinine serum concentration: mean ± SE, n = 6
Description: as §1, §2, §3

[3] = tested on: liver tissue; assay: Histopathology assessment of liver (H&E, semi-quantitative grading); format: in vivo; settings: mice
Description: as §1
(§4) Processing of tissue samples for histology assessment followed established procedures. In brief, the tissue samples were rinsed with 0.9% saline solution, fixed in 10% formalin. Then the diagonal section of the liver, the transverse section of the kidneys and heart and the horizontal section of the spleen and the posterior section of the brain were obtained and processed (Leica TP1020, Japan) as follows: (1) 10% neutral buffered formalin for 1 h, twice; (2) 70% alcohol for 1.5 h; (3) 80% alcohol for 1.5 h; (4) 90% alcohol for 1.5 h; (5) absolute alcohol for 1.5 h, twice; (6) xylene for 1.5 h, twice; (7) in molten wax at 65°C for 2.5 h two changes. The processed tissues were embedded in paraffin and sectioned at 4 microns thickness, placed on frosted glass slides and dried on a 70°C hot plate for 30 minutes.
(§5) The tissues were stained using the hematoxylin and eosin (H&E) stains. The sections were dewaxed in two changes of xylene (3 min each), hydrated in two changes of 100% ethanol, followed by 90% ethanol and 70% ethanol, for 3 min each, rinsed with water (3 min) and stained. […]
(§6) Histopathology changes were observed and grouped based on two main criteria: vascular changes including vessel congestion, extravasation of red blood cells and hematoma formation; and necrotic changes including necrosis, fibrosis, nuclear changes, abscesses and cell regeneration. The morphological changes were assessed semi-quantitatively, blind by two independent assessors and graded as follows: No change - 0 (no distinguishable change, 0%); mild change - 1 (initiation of changes, up to 30%); moderate change - 2 (patent changes, 31-60%); severe change - 3 (wide spread changes, 61-100%). […]

[4] = tested on: kidney tissue; assay: Histopathology assessment of kidney (H&E, semi-quantitative grading); format: in vivo; settings: mice
Description: as §1, §4
(§7) The tissues were stained using the hematoxylin and eosin (H&E) stains. The sections were dewaxed in two changes of xylene (3 min each), hydrated in two changes of 100% ethanol, followed by 90% ethanol and 70% ethanol, for 3 min each, rinsed with water (3 min) and stained. The stained tissues were dehydrated with 70% ethanol followed by 90% ethanol, placed in two changes of 100% ethanol for 3 minutes each and cleaned with two changes of xylene (3 min each).
(§8) Histopathology changes were observed and grouped based on two main criteria: vascular changes including vessel congestion, extravasation of red blood cells and hematoma formation; and necrotic changes including necrosis, fibrosis, nuclear changes, abscesses and cell regeneration. The morphological changes were assessed semi-quantitatively, blind by two independent assessors and graded as follows: No change - 0 (no distinguishable change, 0%); mild change - 1 (initiation of changes, up to 30%); moderate change - 2 (patent changes, 31-60%); severe change - 3 (wide spread changes, 61-100%). Then, using SPSS 16.0, the Mann-Whitney test was used for pair-wise comparison between the sunitinib alone group and the combination group at each dose. The differences were considered significance if p < 0.05.

[5] = tested on: heart tissue; assay: Histopathology assessment of heart (H&E, semi-quantitative grading); format: in vivo; settings: mice
Description: as §1, §4, §7, §8

[6] = tested on: brain tissue; assay: Histopathology assessment of brain (H&E, semi-quantitative grading); format: in vivo; settings: mice; for Brain histopathological changes: 4 h
Description: as §1
Processing of tissue samples for histology assessment followed established procedures. In brief, the tissue samples were rinsed with 0.9% saline solution, fixed in 10% formalin. […]
as §6

[7] = tested on: spleen; assay: Histopathology assessment of spleen (H&E, semi-quantitative grading); format: in vivo; settings: mice; for Spleen inflammatory changes: at any dose; for Spleen vascular changes: study doses of each treatment group
Description: as §1, §4, §5, §6

[8] = humans; cited from earlier work
[9] = tested on: plasma proteins; settings: humans; cited from earlier work
[10] = design: method as in PMID 19169880; settings: mice, cited from earlier work
[11] = tested on: mouse plasma proteins; design: method as in PMID 19169880; settings: fraction unbound independent of concentration; cited from earlier work
[12] = design: method as in earlier work; settings: monkeys; up; cited from earlier work
[13] = design: method as in PMID 16520665; settings: mice; cited from earlier work
[14] = tested on: P450; design: method as in PMID 20020268; settings: cited from earlier work
[15] = sunitinib 25 mg/kg PO alone, 4 h post dose, n = 6
[16] = sunitinib 50 mg/kg PO alone, 4 h post dose, n = 6
[17] = sunitinib 80 mg/kg PO alone, 4 h post dose, n = 6
[18] = sunitinib 100 mg/kg PO alone, 4 h post dose, n = 6
[19] = sunitinib 140 mg/kg PO alone, 4 h post dose, n = 6
[20] = sunitinib alone 25-140 mg/kg PO, 4 h post dose
[21] = sunitinib 25 mg/kg PO alone, 4 h post dose
[22] = sunitinib 50 mg/kg PO alone, 4 h post dose
[23] = sunitinib 80 mg/kg PO alone, 4 h post dose
[24] = sunitinib 100 mg/kg PO alone, 4 h post dose
[25] = sunitinib 140 mg/kg PO alone, 4 h post dose
[26] = increasing doses of sunitinib alone (25-140 mg/kg PO), 4 h
[27] = paracetamol 500 mg/kg IP alone, n = 6
[28] = paracetamol 500 mg/kg IP alone, n = 6, listed as paracetamol

CCN(CC)CCNC(=O)c1c(C)[nH]c(/C=C2\C(=O)Nc3ccc(F)cc32)c1C [Sunitinib]
ALT serum concentration [1, 15]: 61.40 ± 26.57 U/L | AST serum concentration [1, 15]: 204.6 ± 50.3 U/L | ALT serum concentration [1, 16]: 36.75 ± 12.15 U/L | AST serum concentration [1, 16]: 204.4 ± 49.4 U/L | ALT serum concentration [1, 17]: 75.02 ± 20.37 U/L | AST serum concentration [1, 17]: 290.3 ± 77.7 U/L | ALT serum concentration [1, 18]: 47.61 ± 24.50 U/L | AST serum concentration [1, 18]: 243.0 ± 66.4 U/L | ALT serum concentration [1, 19]: 50.89 ± 18.90 U/L | AST serum concentration [1, 19]: 239.5 ± 65.9 U/L | ALT serum concentration, range of group means [1, 20]: 36.75-75.02 U/L | AST serum concentration, range of group means [1, 20]: 204.4-290.3 U/L and 204.64 - 290.28 U/L | BUN serum concentration [2, 21]: 20.08 ± 2.54 mg/dL | Creatinine serum concentration [2, 21]: 0.535 ± 0.033 mg/dL | BUN serum concentration [2, 22]: 17.5 ± 1.25 mg/dL | Creatinine serum concentration [2, 22]: 0.594 ± 0.082 mg/dL | BUN serum concentration [2, 23]: 19.71 ± 0.58 mg/dL | Creatinine serum concentration [2, 23]: 0.528 ± 0.064 mg/dL | BUN serum concentration [2, 24]: 17.62 ± 0.94 mg/dL | Creatinine serum concentration [2, 24]: 0.533 ± 0.060 mg/dL | BUN serum concentration [2, 25]: 26.68 ± 6.05 mg/dL | Creatinine serum concentration [2, 25]: 0.559 ± 0.051 mg/dL | BUN concentrations, range of group means [2, 20]: 17.50 to 26.68 mg/dL | Creatinine serum concentration, range of group means [2, 20]: 0.528 to 0.594 mg/dL | Hepatic inflammatory changes (grade) [3, 26]: mild (mild change - 1 (initiation of changes, up to 30%)) | Hepatic vascular changes (grade) [3, 26]: mild (mild change - 1 (initiation of changes, up to 30%)) | Renal inflammatory changes ([4]; sunitinib alone 140 mg/kg PO, 4 h): some tubular necrosis | Renal vascular changes (grade) ([4]; sunitinib alone 25-140 mg/kg PO, 4 h): mild (mild change - 1 (initiation of changes, up to 30%)) | Renal inflammatory changes ([4]; sunitinib alone PO, doses below 140 mg/kg, 4 h): no signs of inflammatory changes | Cardiotoxicity (damage grade) ([5]; 25 - 80 mg/kg doses of sunitinib, reduction in relation to the paracetamol group): no damage to moderate damage | Heart inflammatory changes ([5]; sunitinib alone PO, 4 h): no inflammatory changes | Heart vascular congestion (grade) ([5]; sunitinib alone PO, 4 h): mild (mild change - 1 (initiation of changes, up to 30%)) | Brain histopathological changes ([6]; sunitinib alone PO at high doses): toxicity decreased | Brain histopathological changes ([6]; sunitinib alone PO at low doses (p < 0.05 at 25 and 80 mg/kg)): Some congestion of vessels at the 'cortical junction' as well as evidence of liquefactive necrosis | Spleen inflammatory changes [7]: no inflammatory changes | Spleen vascular changes [7]: did not reveal any vascular changes | Dose eliminated in the faeces [8]: 61% | Half-life [8]: 40 to 60 h | Recovered unchanged in urine [8]: around 16% | Time after dosing at which maximum plasma concentration is reached [8]: 6 to 12 h | Bound to albumin [9]: 95% | Elimination half-life ([10]; after oral administration): 1.5 to 7.6 h | Time within which maximum concentration is achieved [10]: 0.5 to 6 h | Bound to mouse plasma proteins [11]: 91% | Brain penetration, percent of plasma concentrations [12]: 30%-40 | Brain penetration, times the plasma concentration [13]: 4-7 times

CCNCCNC(=O)c1c(C)[nH]c(/C=C2\C(=O)Nc3ccc(F)cc32)c1C [SU12662]
Half-life [8]: 80 to 110 h | Bound to plasma proteins [9]: 90% | Bound to mouse plasma proteins [11]: 95% | Brain penetration, percent of plasma concentrations [12]: 30%-40 | Brain penetration, times the plasma concentration [13]: 4-7 times

CC(=O)Nc1ccc(O)cc1 [PCM, paracetamol]
Mean serum AST relative to vehicle control group ([1]; paracetamol 500 mg/kg IP alone): 2 fold | ALT serum concentration [1, 27]: 249.6 ± 222.7 U/L | AST serum concentration [1, 27]: 377.1 ± 173.6 U/L | ALT serum concentration [1, 28]: 249.60 ± 222.72 U/L | AST serum concentration [1, 28]: 377.09 ± 173.55 U/L | Increase of creatinine serum concentration vs baseline control ([2]; paracetamol 500 mg/kg IP alone): 21% | BUN serum concentration ([2]; paracetamol 500 mg/kg IP alone): 33.81 ± 5.68 mg/dL | Creatinine serum concentration ([2]; paracetamol 500 mg/kg IP alone): 0.644 ± 0.110 mg/dL | Hepatic inflammatory changes (grade) ([3]; paracetamol 500 mg/kg IP alone): moderate (moderate change - 2 (patent changes, 31-60%)) | Hepatic vascular changes (grade) ([3]; paracetamol 500 mg/kg IP alone): mild (mild change - 1 (initiation of changes, up to 30%)) | Renal inflammatory changes (grade) ([4]; paracetamol 500 mg/kg IP alone): mild (mild change - 1 (initiation of changes, up to 30%)) | Renal vascular changes (grade) ([4]; paracetamol 500 mg/kg IP alone): mild (mild change - 1 (initiation of changes, up to 30%)) | Heart inflammatory changes (grade) ([5]; paracetamol 500 mg/kg IP alone): mild (mild change - 1 (initiation of changes, up to 30%)) | Heart vascular congestion (grade) ([5]; paracetamol 500 mg/kg IP alone): mild (mild change - 1 (initiation of changes, up to 30%)) | Brain vascular or inflammatory changes ([6]; paracetamol 500 mg/kg IP alone): no vascular or inflammatory changes | Spleen inflammatory changes [7]: no inflammatory changes | Spleen vascular changes [7]: did not reveal any vascular changes | Amount undergoing P450 mediated oxidation to NAPQI [14]: ~ 5%
